Results as given in patent US4968708A, “Imidazo[2,1-B]benzothiazole compounds and antiulcer compositions containing the same” (priority 1988, dated 1990).

Legend:
ethanol-induced ulcer = test: Antiulcer activity against ethanol-induced ulcer model; type: in vivo, Wistar strain male rats; settings: rats, 100 mg/kg p.o. 30 min before absolute ethanol 5 ml/kg p.o.; for Ethanol Induced Ulcer Ulcer Index: stomach excised 1 h later; for Ethanol Induced Ulcer Inhibition Rate: vs control group
Experimental: A suspension of each test compound in a 5% gum arabic aqueous solution was orally given to Wistar strain male rats (at the age of 7 to 8 weeks, weighing 180 to 250 g; 5 rats in the group administered with the test compound; 9 rats in the control group) fasted for […] at a dose of 100 mg of any the test compound/5 ml/kg. Thirty minutes after administration, absolute ethanol was further orally administered at a dose of 5 ml/kg. One hour after administration of absolute ethanol, the stomach was excised under ethereal anesthesia and spotted and linear erosion and a long diameter of ulcer were microscopically measured to determine an ulcer index and an inhibition rate.
(§1) In the control group, a 5% gum arabic aqueous solution was orally administered at a dose of 5 ml/kg.

[1] = tested on: water-immersion stress ulcer; test: Antiulcer activity against water-immersion stress ulcer; type: in vivo, Wistar strain male rats; settings: rats; for inhibition in vivo at 100 mg/kg: Rattus norvegicus, po, 6 h, read-out: Water-Immersion Stress Ulcer Inhibition Rate; for Water-Immersion Stress Ulcer Ulcer Index: 100 mg/kg p.o. 30 min before 6 h water immersion at 22°±1° C.
Experimental: A suspension of each test compound in a 5% gum arabic aqueous solution was orally given to Wistar strain male rats (at the age of 7 to 8 weeks, weighing 180 to 250 g; 7-9 rats in the group administered with the test compound; 10-16 rats in the control group) fasted for 24 hours at a dose of 100 mg of the test compound/5 ml/kg. Thirty minutes after administration, the animal was immersed in a water bath at 22°±1° C. up to the xiphisternum using a stress cage made by Tokyo University, Faculty of Pharmacology, to apply a stress load for 6 hours. After applying the stress load, the rats had the cervical vertebra dislocated to death. Then, the stomach was excised and, spotted and linear erosion and a long diameter of any ulcer were microscopically measured to determine an ulcer index and an inhibition rate.
as §1

gastric juice secretion = test: Gastric juice secretion inhibition activity (pyloric ligature); type: in vivo, Wistar strain male rats; settings: rats, 100 mg/kg p.o.; for inhibition in vivo at 100 mg/kg: Rattus norvegicus, po, read-out: Volume Inhibition Rate
Experimental: A suspension of each test compound in a 5% gum arabic aqueous solution was orally given to Wistar strain male rats (at the age of 7 to 8 weeks, weighing 180 to 250 g; 7-9 rats in the group administered with the test compound; 14-17 rats in the control group) fasted for 24 hours at a dose of 100 mg of the test compound/5 ml/kg. Thirty minutes after administration, pyloric ligature was made under ethereal anesthesia. Four hours thereafter, the stomach was excised under ethereal anesthesia to collect gastric juice. The collected gastric juice was centrifuged (2500 rpm) at 4° C. for 10 minutes. After the supernatant was collected, the amount of the gastric juice and its pH were measured using a pH meter. Furthermore, the amount of free hydrochloric acid and the total acidity were measured with Topfer reagent and phenolphthalein reagent, respectively. Using a part of the gastric juice, pepsin output in the gastric juice was measured using casein as a substrate in a manner similar to the method of Anson et al.
as §1

aspirin-induced ulcer = test: Antiulcer activity against aspirin-induced ulcer model; type: in vivo, Wistar strain male rats; settings: rats, 100 mg/kg p.o. 30 min before aspirin 200 mg/kg p.o.; for inhibition in vivo at 100 mg/kg: Rattus norvegicus, po, 7 h, read-out: Aspirin Induced Ulcer Inhibition Rate; for Aspirin Induced Ulcer Ulcer Index: stomach excised 7 h after aspirin
Experimental: Thirty minutes after administration, aspirin was further orally administered at a dose of 200 mg/kg. Seven hours after administration of aspirin, the stomach was excised under ethereal anesthesia and spotted and linear erosion and a long diameter of any ulcer were microscopically measured to determine an ulcer index and an inhibition rate.
as §1

ddy strain male mice = test: Acute toxicity; type: in vivo; settings: 7 days observation
Experimental: (§2) A suspension of each test compound in a 5% gum arabic aqueous solution was orally given to ddy strain male mice (at the age of 4 to 5 weeks, weighing 25 to 35 g; 2 to 9 mice in one group). For 7 days after the administration, the mice were observed as to if they were dead or alive. Based on the number of deaths, the LD50 value was determined by the Probit method.

Acute toxicity = type: in vivo; settings: mouse, in vivo, po; mice, 7 days observation, Probit method
Experimental: as §2

[2] = 100 mg/kg p.o. 30 min before 6 h water immersion, vs control group
[3] = 4 h, pyloric ligature, 4 h, vs control group
[4] = pyloric ligature 30 min later, gastric juice collected after 4 h
[5] = pyloric ligature, 4 h, first part of Table 5
[6] = pyloric ligature, 4 h, second part of Table 5

| Compound | Ethanol Induced Ulcer Ulcer Index (ethanol-induced ulcer) [mm^2] | Ethanol Induced Ulcer Inhibition Rate (ethanol-induced ulcer) [%] | inhibition in vivo at 100 mg/kg [1, 2] [%] | Water-Immersion Stress Ulcer Ulcer Index [1] [mm^2] | inhibition in vivo at 100 mg/kg (gastric juice secretion; [3]) [%] | Volume (gastric juice) (gastric juice secretion; [4]) [mL] | Acidity (gastric juice secretion; pyloric ligature, 4 h) [mEq/l] | Free HCl (gastric juice secretion; pyloric ligature, 4 h) [mEq/l] | Pepsin Activity (gastric juice secretion; pyloric ligature, 4 h) [units/ml] | Pepsin Output (gastric juice secretion; pyloric ligature, 4 h) [units/hr] | pH (gastric juice) (gastric juice secretion; [5]) | inhibition in vivo at 100 mg/kg (aspirin-induced ulcer; vs control group) [%] | Aspirin Induced Ulcer Ulcer Index (aspirin-induced ulcer) [mm^2] | Mortality (No. death/No. treated) (ddy strain male mice; 2000 mg/kg p.o) | Mortality (No. death/No. treated) (ddy strain male mice; 2828 mg/kg p.o) | LD50 at 168 h (Acute toxicity) [mg/kg] | Acid Output (gastric juice secretion; [6]) [mcEq/100 g] | Free HCl (gastric juice secretion; [6]) [mcEq/100 g] | Pepsin Output (gastric juice secretion; [6]) [mg tyrosine/100 g] | Volume (gastric juice) (gastric juice secretion; [6]) [ml/100 g] | also measured |
| --- | --- | --- | --- | --- | --- | --- | --- | --- | --- | --- | --- | --- | --- | --- | --- | --- | --- | --- | --- | --- | --- |
| Cc1nc2sc3ccccc3n2c1CO [Example 1, 2-Methylimidazo[2,1-b]benzothiazole-3-methanol] | 4.9 ± 2.6 | 94.3 | 80 | 4.3 ± 0.9 | 52.5 | 2.8 ± 0.4 | 49.0 ± 5.9 | 9.4 ± 3.1 | 90.3 ± 5.9 | 59.6 ± 6.8 | 2.94 ± 0.30 | 59.4 | 23.3 ± 5.1 | 0/4 | 1/5 | 3590 | – | – | – | – | Mortality (No. death/No. treated) (ddy strain male mice; 4000 mg/kg p.o): 3/5; Mortality (No. death/No. treated) (ddy strain male mice; 4899 mg/kg p.o): 2/2 |
| Cc1nc2sc3ccccc3n2c1CO.Cl [Example 2, 2-Methylimidazo[2,1-b]benzothiazole-3-methanol hydrochloride] | – | – | – | 4.6 ± 1.1 | – | 2.8 ± 0.4 | 77.3 ± 4.5 | 15.8 ± 4.5 | 91.1 ± 8.3 | 58.4 ± 5.2 | 2.43 ± 0.20 | – | 36.0 ± 5.8 | – | – | 2130 | – | – | – | – | Water-Immersion Stress Ulcer Inhibition Rate [1, 2]: 80.3%; Volume Inhibition Rate (gastric juice secretion; pyloric ligature, 4 h, vs control group): 53.3%; Aspirin Induced Ulcer Inhibition Rate (aspirin-induced ulcer; vs control group): 46.1%; Mortality (No. death/No. treated) (ddy strain male mice; 1732 mg/kg p.o): 0/5; Mortality (No. death/No. treated) (ddy strain male mice; 2041 mg/kg p.o): 2/4; Mortality (No. death/No. treated) (ddy strain male mice; 2236 mg/kg p.o): 3/5; Mortality (No. death/No. treated) (ddy strain male mice; 2449 mg/kg p.o): 4/5 |
| CCc1nc2sc3ccccc3n2c1CO [Example 8, 2-Ethylimidazo[2,1-b]benzothiazole-3-methanol] | 4.1 ± 2.2 | 95.2 | 50.3 | 8.1 ± 2.2 | – | – | – | – | – | – | – | – | – | – | – | – | – | – | – | – | – |
| Cc1nc2sc3cc(F)ccc3n2c1CO [Example 11, 7-Fluoro-2-methylimidazo[2,1-b]benzothiazole-3-methanol] | – | – | 54 | 10.9 ± 4.4 | – | – | – | – | – | – | – | 51.8 | 34.2 ± 2.2 | – | – | – | 118.8 ± 37.2 | 89.1 ± 35.5 | 16.7 ± 2.9 | 1.40 ± 0.34 | pH (gastric juice) (gastric juice secretion; [6]): 1.58 ± 0.15; Mortality (No. death/No. treated) (ddy strain male mice; 500 mg/kg p.o): 0/5; Mortality (No. death/No. treated) (ddy strain male mice; 1000 mg/kg p.o): 0/5 |
| COCc1c(C)nc2sc3ccccc3n12 [Example 12, 2-Methylimidazo[2,1-b]benzothiazole-3-methanol methyl ether] | – | – | 83.3 | 2.2 ± 0.4 | 60.3 | 2.5 ± 0.1 | 66.7 ± 4.7 | 23.2 ± 6.9 | 90.7 ± 4.1 | 55.5 | 2.28 ± 0.26 | 34.5 | 49.9 ± 5.4 | 6/9 | 6/6 | 1770 | – | – | – | – | Mortality (No. death/No. treated) (ddy strain male mice; 1414 mg/kg p.o): 1/5 |
| COc1ccc(COCc2c(C)nc3sc4ccccc4n23)cc1 [Example 14, 2-Methylimidazo[2,1-b]benzothiazole-3-methanol (4-methoxy-benzyl) ether] | – | – | 39 | 7.5 ± 2.2 | – | – | – | – | – | – | – | 15 | 71.5 ± 8.0 | – | – | – | 196.8 ± 38.0 | 144.9 ± 35.0 | 22.4 ± 3.8 | 2.63 ± 0.35 | pH (gastric juice) (gastric juice secretion; [6]): 1.42 ± 0.08; Mortality (No. death/No. treated) (ddy strain male mice; 500 mg/kg p.o): 0/5; Mortality (No. death/No. treated) (ddy strain male mice; 1000 mg/kg p.o): 0/5 |
